Seven compounds from patent US8361993B2, “Hydroxy-bisphosphonic acid derivatives as vector targeting bone tissue” (Universite de Nantes, priority 2008, dated 2013) can be followed below.

Where a name gives a salt, the structure may show the parent alone. Read-outs that look alike come from different tables or passages of the source.

One data set concerns mice (Swiss strain). The data set is described as follows: in vivo bone tropism test in young mice, 4 weeks of treatment. The settings on record: 0.35 μmol/kg sub-cutaneously twice a week; for specific bone volume BV/TV, left femur / specific bone volume BV/TV, average of left and right femur / specific bone volume BV/TV, right femur: 4 weeks; for specific bone volume BV/TV, left femur: control 56.58%; for specific bone volume BV/TV, average of left and right femur: control 62.89%; for specific bone volume BV/TV, right femur: control 69.20%.

The test system of the next data set is murine fibroblast L929. The data set is described as follows: cells. It is filed as cell-based. The conditions noted are these: Mus musculus, L929, 72 h.
Data set [1] has as its system POS-1 mouse osteosarcoma. The conditions noted are these: in vivo.
Data set [2] has as its system POS-1 mouse osteosarcoma. The data set can be described thus: cells. It is filed as cell-based. The conditions noted are these: 72 h.
In a further data set the test system is mice. The data set is described as follows: administration of the fluorescent molecule in mice. The settings on record: mouse, in vivo.
A further data set deals with different cell lines. The data set is described as follows: in vitro cytotoxicity of the fluorescent molecule. It is filed as cell-based.
The test system of data set [3] is POS1 osteosarcoma cell line. The data set can be described thus: viability/cytotoxicity test on osteosarcoma line POS1. It is filed as cell-based. The conditions noted are these: mouse osteosarcoma cell line. As to the method: (§1) The biological activities (viability/cytotoxicity test) of the molecules (III) and (IV) were tested in vitro on cultures of human, murine and rat osteosarcoma lines in comparison with normal cells (healthy osteoblasts from mouse calvaria).

Data set [4] deals with MG63 osteosarcoma cell line. The data set is described as follows: viability/cytotoxicity test on osteosarcoma line MG63. The format is cell-based. The settings on record: MG-63; human osteosarcoma cell line. How it is done: as §1
Data set [5] concerns OSRGA osteosarcoma cell line. The data set is described as follows: viability/cytotoxicity test on osteosarcoma line OSRGA. The format is cell-based. The settings on record: rat osteosarcoma cell line. How it is done: as §1
The subject of data set [6] is Mouse osteosarcoma POS1 cells. The data set is described as follows: in vivo osteolytic primitive bone tumor model, POS1 tumor fragments transplanted into para-osteal site. The conditions noted are these: treated versus untreated (control) mice; FIG. 3. How it is done:
Mouse osteosarcoma POS1 cells were injected in the pad of a 5-week old male mouse of the C3H/HeN strain. Fragments of the tumor which develops on this site are then transplanted into a para-osteal site in order to induce development of an osteolytic primitive bone tumor. The molecule (IV) was then injected as a cure of […] injections (IP) of 11.5 or 115 μmol/kg at 24 hr intervals from the 7th day (D7) after tumoral induction.

Turning to `O=P(O)(O)C(O)(Cn1ccnc1)P(=O)(O)O` [Disodium salt of zoledronic acid, zoledronic acid, reference compound], in the data set with mice (Swiss strain), the “specific bone volume BV/TV, left femur” value stood at 72.72%; the “specific bone volume BV/TV, average of left and right femur” value was determined as 74.02%; the “specific bone volume BV/TV, right femur” value was determined as 75.33%. For the same compound, the “weight follow-up and general condition of the mice” value with mice (Swiss strain) (after 4 weeks) is given as “no incidence on the weight follow-up, nor on the general condition”.
As usually defined, the IC50 is the concentration needed to halve the response being measured. As to `NP(=O)(OCc1cccc(OCCCBr)c1)N(CCCl)CCCl` (centres unmarked) [Molecule 2], the concentration for half-maximal inhibition (IC50) with murine fibroblast L929 (read-out: IC50 L929 (DMSO)) is greater than 500 µM; with murine fibroblast L929 (read-out: IC50 L929 (ethanol)) it was 250 µM; with POS-1 mouse osteosarcoma [2] (read-out: IC50 POS-1 (DMSO)), 200 µM; with POS-1 mouse osteosarcoma [2] (read-out: IC50 POS-1 (ethanol)), 300 µM. Further, the survival rate entry with POS-1 mouse osteosarcoma [1] is listed as “significant increase”.
As to `CN(CCCOc1cccc(COP(N)(=O)N(CCCl)CCCl)c1)CCC(=O)OC(C)(C)C` (centres unmarked) [Molecule 3], the IC50 in the data set on murine fibroblast L929 (read-out: IC50 L929 (DMSO)) is 500 µM; with murine fibroblast L929 (read-out: IC50 L929 (ethanol)), greater than 500 µM; with POS-1 mouse osteosarcoma [2] (read-out: IC50 POS-1 (DMSO)) it was 280 µM; in the data set with POS-1 mouse osteosarcoma [2] (read-out: IC50 POS-1 (ethanol)) it was 500 µM.
In the case of `CN(CCCOc1ccccc1)CCC(O)(P(=O)(O)O)P(=O)(O)O` [Molecule 4], in the data set on mice (Swiss strain), the “specific bone volume BV/TV, left femur” value was determined as 73.69%; the “specific bone volume BV/TV, average of left and right femur” value amounted to 73.88%; the “specific bone volume BV/TV, right femur” value was found to be 74.08%. Besides, the “mineral density on radiographs” value with mice (Swiss strain) (after 4 weeks, versus control mice, FIG. 2) is on record as “increase in the mineral density”.
Consider `CN(CCCOc1cccc(CN(C)S(=O)(=O)c2cccc3c(N(C)C)cccc23)c1)CCC(O)(P(=O)(O)O)P(=O)(O)O` [Molecule (II), 3-((3-(3-((5-dimethylamino)-N-methylnaphthalene-1-sulfonamido)methyl)phenoxy)propyl(methyl)amino)-1-hydropropane-1,1-diyldiphosphonic acid], for which the “cytotoxic activity after administration in mice” value in the data set with mice is “did not either reveal any cytotoxic activity”. In the data set on different cell lines, the “cytotoxic activity in vitro” value is “did not have any cytotoxic activity”.
With `CN(CCCOc1cccc(COP(N)(=O)N(CCCl)CCCl)c1)CCC(O)(P(=O)(O)O)P(=O)(O)O` (centres unmarked) [Molecule (III), 3-((3-(3-((amino(bis(2-chloroethyl)amino)phosphoryloxy)methyl)phenoxy)propyl)(methyl)amino)-1-hydroxypropane-1,1-diyl-diphosphonic acid], the IC50 in [3], in data set [4] and in [5] was greater than 200 µM in each case.
Regarding `CN(CCCOc1cccc(COCCOP(N)(=O)N(CCCl)CCCl)c1)CCC(O)(P(=O)(O)O)P(=O)(O)O` (centres unmarked) [Molecule (IV), {3-[(3-{3-[6-amino-9-chloro-7-(2-chloroethyl)-6-oxido-2,5-dioxa-7-aza-6-phosphanon-1-yl]phenoxy}propyl)(methyl)amino]-1-hydroxypropane-1,1-diyl}biphosphonic acid], the “bone mineral density in the epiphyseal area (radiographs)” value in data set [6] is listed as “increase in the bone mineral density”. Further, the IC50 in [3], in data set [4] and in [5] was greater than 500 µM each time.
